According to paper PMC11879280, “Antimicrobial activity of peptoids against Metallo-β-lactamase-producing Klebsiella pneumoniae, Acinetobacter baumannii, Pseudomonas aeruginosa, and other WHO priority pathogens, including Candida auris” (Journal of Applied Microbiology, 2025):
≈ marks a conversion by molar mass, not a printed value. Like-named read-outs stand apart in the source and are kept apart here.

How the values were obtained:
C. auris CBS10913 [1] = assay: microbe, parasite or virus in culture; conditions: Candidozyma auris, read-out: MIC against C. auris
[2] = system: C. auris CBS12373 biofilm; format: cell-based, Candida auris; conditions: for Mature biofilm inhibition, blank corrected 570 nm, av. of readings: MTT absorbance
Experimental: To assess disruption of mature biofilms, 2 × 10^5 cells were cultured for 2 h in 96-well flat bottom microtiter plates at 37°C, washed, then incubated for 48 h in fresh media to form mature biofilm. […] For each activity test, the metabolic activities of the yeast cells in biofilms were measured by MTT reduction assay after washing the disrupted biofilm with PBS (Srivastava and Ahmad [2020]).

C. auris CBS10913 [3] = conditions: CBS 10 913; RPMI 1640 with MOPS, 5 × 10^3 CFU ml^−1; ≥90% reduction (≥50% for fluconazole)
C. auris CBS12373 [4] = assay: Checkerboard microdilution synergy test; format: cell-based, Candida auris
Experimental: (§1) The checkerboard microdilution test was performed to determine the fractional inhibitory concentration (FIC) of selected antimicrobials and assess whether the combination had synergistic, antagonistic, or indifferent effects (Anon [2016]) against strains of K. pneumoniae or C. auris. […] Additionally, a strain susceptible to ciprofloxacin was tested to observe the outcome of its combination with TM8 as a representative case from susceptible isolates. […] Then, 10 µl of bacteria (5 × 10^6 CFU ml^−1) or C. auris (2.5 × 10^4 CFU ml^−1) were added to each well, except for the sterility control well. […] The sterility control wells contained only MHB (or RPMI in case of C. auris), and the growth control contained 110 µl of microbial inoculum with no antimicrobials. Subsequently, the plates were incubated for 18- 24 hours at 36 ± 1 °C.
(§2) The FIC for each combination interaction was calculated as follows:
(§3) Then, the summation of FIC (ƩFIC) was calculated for each antimicrobial combination as follows: ƩFIC = FICA + FICB. The results were interpretated as follows: Synergy if ƩFIC ≤ 0.5; Additive if 0.5<ƩFIC ≤ 1; Indifference if […] ≤ 4; and Antagonism if ƩFIC > 4 (Odds [2003]). All antimicrobial synergy experiments were repeated in at least two independent runs.

C. auris CBS10913 [5] = assay: Checkerboard microdilution synergy test; format: cell-based, Candida auris
Experimental: as §1, §2, §3

[6] = system: C. auris CBS12373 biofilm; assay: Initial biofilm inhibition, MTT reduction assay; format: cell-based, Candida auris
[7] = system: C. auris CBS12373 biofilm; assay: Anti-adherence (biofilm prevention), MTT reduction assay; format: cell-based, Candida auris
Experimental: Finally, 3-(4,5-Dimethylthiazol 2-yl)-2,5-diphenyltetrazolium bromide (MTT) reduction assay was performed to observe the metabolic activities of C. auris.

C. auris CBS12373 [8] = assay: Broth microdilution MIC; format: cell-based, Candida auris
A. baumannii 005 = assay: MIC Test Strip MBL (imipenem, imipenem with EDTA); format: cell-based; conditions: Acinetobacter baumannii, Mueller–Hinton agar, 20 h, 37°C, read-out: Imipenem IMI (MIC, MBL strip)
Experimental: (§4) The test was performed as per the manufacturer’s instructions. Briefly, the strips were applied to a lawn culture of bacteria maintained at 1.5 × 10^8 CFU ml^−1 on Mueller–Hinton agar (Oxoid, UK) and incubated for 20 h at 37°C.

A. baumannii 006 = assay: MIC Test Strip MBL (imipenem, imipenem with EDTA); format: cell-based; conditions: Acinetobacter baumannii, Mueller–Hinton agar, 20 h, 37°C, read-out: Imipenem IMI (MIC, MBL strip)
Experimental: as §4

A. baumannii 008 = assay: MIC Test Strip MBL (imipenem, imipenem with EDTA); format: cell-based; conditions: Acinetobacter baumannii, Mueller–Hinton agar, 20 h, 37°C, read-out: Imipenem IMI (MIC, MBL strip)
Experimental: as §4

A. baumannii 007 = assay: MIC Test Strip MBL (imipenem, imipenem with EDTA); format: cell-based; conditions: Acinetobacter baumannii, Mueller–Hinton agar, 20 h, 37°C, read-out: Imipenem IMI (MIC, MBL strip)
Experimental: as §4

P. aeruginosa 33 = assay: MIC Test Strip MBL (imipenem, imipenem with EDTA); format: cell-based; conditions: Pseudomonas aeruginosa, Mueller–Hinton agar, 20 h, 37°C, read-out: Imipenem IMI (MIC, MBL strip)
Experimental: as §4

K. pneumoniae JIE2709 = assay: MIC Test Strip MBL (imipenem, imipenem with EDTA); format: cell-based; conditions: Klebsiella pneumoniae, Mueller–Hinton agar, 20 h, 37°C, read-out: Imipenem IMI (MIC, MBL strip)
Experimental: as §4

P. aeruginosa AR-1270 = assay: MIC Test Strip MBL (imipenem, imipenem with EDTA); format: cell-based; conditions: Pseudomonas aeruginosa, AR1270, Mueller–Hinton agar, 20 h, 37°C, read-out: Imipenem IMI (MIC, MBL strip)
Experimental: as §4

K. pneumoniae JIE2713 = assay: MIC Test Strip MBL (imipenem, imipenem with EDTA); format: cell-based; conditions: Klebsiella pneumoniae, Mueller–Hinton agar, 20 h, 37°C, read-out: Imipenem IMI (MIC, MBL strip)
Experimental: as §4

[9] = Candidozyma auris, read-out: MIC of DrugB (alone, checkerboard)

Q: What does the source list for `OC(Cn1cncn1)(Cn1cncn1)c1ccc(F)cc1F` [Fluconazole, reference compound]?
A: MIC (C. auris CBS10913 [1]): 3.3 µM (≈ 1.01 µg/mL); Mature biofilm MBEC ([2]; C. auris CBS12373, 48 h biofilm, then 24 h with agent, MTT, ≥90% reduction): 2048 µg/mL; Biofilm tolerance factor-eradication (MBEC/MIC) ([2]; C. auris CBS12373, MTT): 4; Mature biofilm inhibition, blank corrected 570 nm, av. of readings ([2]; agent at 4 (growth control 1.918)): 2.95; Mature biofilm inhibition, blank corrected 570 nm, av. of readings ([2]; agent at 8 (growth control 1.918)): 2.348; Mature biofilm inhibition, blank corrected 570 nm, av. of readings ([2]; agent at 16 (growth control 1.918)): 2.232; Mature biofilm inhibition, blank corrected 570 nm, av. of readings ([2]; agent at 32 (growth control 1.918)): 2.12; Mature biofilm inhibition, blank corrected 570 nm, av. of readings ([2]; agent at 64 (growth control 1.918)): 2.186; Mature biofilm inhibition, blank corrected 570 nm, av. of readings ([2]; agent at 128 (growth control 1.918)): 0.95; Mature biofilm inhibition, blank corrected 570 nm, av. of readings ([2]; agent at 256 (growth control 1.918)): 0.345; Mature biofilm inhibition, blank corrected 570 nm, av. of readings ([2]; agent at 512 (growth control 1.918)): 0.145; Mature biofilm inhibition, blank corrected 570 nm, av. of readings ([2]; agent at 1024 (growth control 1.918)): 0.104; Mature biofilm inhibition, blank corrected 570 nm, av. of readings ([2]; agent at 2048 (growth control 1.918)): 0.008; MIC against C. auris (C. auris CBS10913 [3]): 1 µg/mL (≈ 3.27 µM); MIC (C. auris CBS12373 [4]; [9]): 128 µg/mL; FICDrugB (C. auris CBS12373 [4]; in combination with TM8): 0.0625; MF of antibiotic (modulation factor) (C. auris CBS12373 [4]; in combination with TM8 (0.5× MIC)): 16; MIC (C. auris CBS10913 [5]; [9]): 1 µg/mL; FICDrugB (C. auris CBS10913 [5]; in combination with TM8): 0.0625; MF of antibiotic (modulation factor) (C. auris CBS10913 [5]; in combination with TM8): 16; Biofilm tolerance factor-inhibition (MBIC/MIC) [6]: 4; Initial biofilm MBIC ([6]; 4 h adhesion, then 48 h with agent, ≥90% reduction): 2048 µg/mL; Biofilm tolerance factor-prevention (BPC/MIC) [7]: 8; Anti-adherence (BPC) ([7]; 2 h adhesion with agent, 48 h growth, ≥90% reduction): 4096 µg/mL; MIC against C. auris (C. auris CBS12373 [8]; CBS 12 373, RPMI 1640 with MOPS, 5 × 10^3 CFU ml^−1, ≥90% reduction (≥50% for fluconazole)): 128 µg/mL (≈ 418 µM); MIC90 (C. auris CBS12373 [8]; Candidozyma auris, C. auris CBS12373 suspension used in the antibiofilm study, read-out: MIC90): 512 µg/mL (≈ 1670 µM); MIC (C. auris CBS12373 [8]; Candidozyma auris, CBS 12 373, value in brackets, read-out: MIC against C. auris): 418 µM (≈ 128 µg/mL)

Q: Which results are given for `C[C@@H](O)[C@H]1C(=O)N2C(C(=O)O)=C(SCCN=CN)C[C@H]12` [Imipenem, imipenem]?
A: MIC (A. baumannii 005): 64 µg/mL (≈ 214 µM); MIC (A. baumannii 006): 64 µg/mL (≈ 214 µM); MIC (A. baumannii 008): 48 µg/mL (≈ 160 µM); MIC (A. baumannii 007): 96 µg/mL (≈ 321 µM); MIC (P. aeruginosa 33): 8 µg/mL (≈ 26.7 µM); MIC (K. pneumoniae JIE2709): 16 µg/mL (≈ 53.4 µM); MIC (P. aeruginosa AR-1270): 16 µg/mL (≈ 53.4 µM); MIC (K. pneumoniae JIE2713): 128 µg/mL (≈ 428 µM)
